Results: patent US20070128217A1 (priority 2003, published 2007)

Experiments:
[1] = test system: control sera (pooled serum of ten healthy LUMC hospital workers; commercial negative donor pooled serum from the Dutch bloodbank); assay type: binding, human; design: Binding of Control serum LUMC to linear peptides / Binding of Control serum Blood-bank to linear peptides / Binding of Control serum LUMC to looped peptides / Binding of Control Serum Blood-Bank to Looped peptides / Binding of Control serum LUMC to linear peptides of the protein M of SARS-CoV Urbani / Binding of Control serum Blood-bank to linear peptides of the protein M of SARS-CoV Urbani / Binding of Control serum LUMC to looped peptides of the protein M of SARS-CoV Urbani / Binding of Control Serum Blood-Bank to Looped peptides of the protein M of SARS-CoV Urbani: unit not given here
[2] = test system: rabbit serum obtained by immunizing a rabbit with the SARS-CoV strain Frankfurt 1; assay type: binding; design: Binding of a rabbit serum to linear peptides / Binding of a rabbit serum to looped peptides / Rabbit serum linear peptides / Rabbit serum looped peptides / Binding of a rabbit serum to linear peptides of protein N of SARS-CoV Urbani (Rabbit serum linear peptides) / Binding of a rabbit serum to looped/cyclic peptides of protein N of SARS-CoV Urbani (Rabbit serum looped peptides): unit not given here
[3] = test system: antibodies in sera from SARS patients (sera 1a, 1b, 2, 6, 37, 62, London, SARS-yellow, SARS-green); assay type: binding, human; design: Binding of serum 6 to linear peptides of protein X1 of SARS-CoV Urbani / Binding of serum 37 to linear peptides of protein X1 of SARS-CoV Urbani / Binding of serum 6 to looped/cyclic peptide (PEPSCAN-ELISA) / Binding of serum 37 to looped/cyclic peptide (PEPSCAN-ELISA) / Binding of serum 37 to looped/cyclic peptides of protein X1 of SARS-CoV Urbani / Binding of serum 6 to linear peptides of protein X2 / Binding of serum 37 to linear peptides of protein X2 / Binding of serum 37 to looped/cyclic peptides of protein X2 of SARS-CoV Urbani / Binding of serum 6 to linear peptides of protein M of SARS-CoV Urbani / Binding of serum 37 to linear peptides of protein M of SARS-CoV Urbani / Binding of serum 6 to looped/cyclic peptides of protein M of SARS-CoV Urbani / Binding of serum 37 to looped/cyclic peptides of protein M of SARS-CoV Urbani / Binding of serum 6 to linear peptides of protein X3 of SARS-CoV Urbani / Binding of serum 37 to linear peptides of protein X3 of SARS-CoV Urbani / Binding of serum 37 to looped/cyclic peptides of protein X3 of SARS-CoV Urbani / Binding of serum 6 to linear peptides of protein X4 of SARS-CoV Urbani / Binding of serum 37 to linear peptides of protein X4 of SARS-CoV Urbani / Binding of serum 37 to looped/cyclic peptides of protein X4 of SARS-CoV Urbani / Binding of serum 6 to linear peptides of protein X5 of SARS-CoV Urbani / Binding of serum 37 to linear peptides of protein X5 of SARS-CoV Urbani / Binding of serum 37 to looped/cyclic peptides of protein X5 of SARS-CoV Urbani / Binding of serum 6 to linear peptides of protein N of SARS-CoV Urbani / Binding of serum 37 to linear peptides of protein N of SARS-CoV Urbani / Binding of serum 6 to linear peptide (PEPSCAN-ELISA) / Binding of serum 1a to looped/cyclic peptides of protein N of SARS-CoV Urbani / Binding of serum 1b to looped/cyclic peptides of protein N of SARS-CoV Urbani / Binding of serum 2 to looped/cyclic peptides of protein N of SARS-CoV Urbani / Binding of serum 6 to looped/cyclic peptides of protein N of SARS-CoV Urbani / Binding of serum 37 to looped/cyclic peptides of protein N of SARS-CoV Urbani / Binding of serum 62 to looped/cyclic peptides of protein N of SARS-CoV Urbani / Binding of serum London to looped/cyclic peptides of protein N of SARS-CoV Urbani / Binding of serum SARS-green to looped/cyclic peptides of protein N of SARS-CoV Urbani: unit not given here

LLFVTIYSHLLLVAA
0.4: Binding of Control Serum Blood-Bank to Looped peptides [1] | Binding of Control serum LUMC to linear peptides [1] | Binding of serum 1a to looped/cyclic peptide (PEPSCAN-ELISA) [3] | Binding of serum 6 to linear peptides of protein X1 of SARS-CoV Urbani [3] | Binding of serum 37 to looped/cyclic peptide (PEPSCAN-ELISA) [3] | Binding of serum SARS-yellow to looped/cyclic peptide (PEPSCAN-ELISA) [3]
0.5: Binding of Control serum Blood-bank to linear peptides [1] | Binding of a rabbit serum to looped peptides [2] | Binding of serum 2 to linear peptides of protein X1 of SARS-CoV Urbani [3] | Binding of serum 62 to linear peptides of protein X1 of SARS-CoV Urbani [3] | Binding of serum 62 to looped/cyclic peptide (PEPSCAN-ELISA) [3]
0.2: Binding of serum 1b to linear peptides of protein X1 of SARS-CoV Urbani [3] | Binding of serum 6 to looped/cyclic peptide (PEPSCAN-ELISA) [3] | Binding of serum London to linear peptides of protein X1 of SARS-CoV Urbani [3] | Binding of serum London to looped/cyclic peptide (PEPSCAN-ELISA) [3] | Binding of serum SARS-green to looped/cyclic peptide (PEPSCAN-ELISA) [3]
0.3: Binding of serum 1b to looped/cyclic peptide (PEPSCAN-ELISA) [3] | Binding of serum 2 to looped/cyclic peptide (PEPSCAN-ELISA) [3] | Binding of serum SARS-green to linear peptides of protein X1 of SARS-CoV Urbani [3] | Binding of serum SARS-yellow to linear peptides of protein X1 of SARS-CoV Urbani [3]
0.1: Binding of a rabbit serum to linear peptides [2]
0.6: Binding of Control serum LUMC to looped peptides [1] | Binding of serum 37 to linear peptides of protein X1 of SARS-CoV Urbani [3]
0.7: Binding of serum 1a to linear peptides of protein X1 of SARS-CoV Urbani [3]

TQSTALQELLIQQWI
0.6: Binding of Control serum LUMC to linear peptides [1] | Binding of Control serum LUMC to looped peptides [1] | Binding of serum 1a to looped/cyclic peptides of protein X2 of SARS-CoV Urbani [3] | Binding of serum 1b to linear peptides of protein X2 [3] | Binding of serum 37 to linear peptides of protein X2 [3] | Binding of serum 37 to looped/cyclic peptides of protein X2 of SARS-CoV Urbani [3] | Binding of serum 62 to linear peptides of protein X2 [3] | Binding of serum 62 to looped/cyclic peptides of protein X2 of SARS-CoV Urbani [3] | Binding of serum SARS-green to linear peptides of protein X2 [3]
0.7: Binding of Control Serum Blood-Bank to Looped peptides [1] | Binding of serum 1a to linear peptides of protein X2 [3] | Binding of serum 6 to linear peptides of protein X2 [3] | Binding of serum London to linear peptides of protein X2 [3] | Binding of serum SARS-yellow to linear peptides of protein X2 [3]
0.5: Binding of serum 1b to looped/cyclic peptides of protein X2 of SARS-CoV Urbani [3] | Binding of serum SARS-green to looped/cyclic peptides of protein X2 of SARS-CoV Urbani [3] | Binding of serum SARS-yellow to looped/cyclic peptides of protein X2 of SARS-CoV Urbani [3]
0.8: Binding of Control serum Blood-bank to linear peptides [1]
0.3: Binding of a rabbit serum to linear peptides [2] | Binding of serum 2 to linear peptides of protein X2 [3]
0.4: Binding of a rabbit serum to looped peptides [2] | Binding of serum 2 to looped/cyclic peptides of protein X2 of SARS-CoV Urbani [3]
0.2: Binding of serum 6 to looped/cyclic peptides of protein X2 of SARS-CoV Urbani [3] | Binding of serum London to looped/cyclic peptides of protein X2 of SARS-CoV Urbani [3]

AALVFLILCFTIKRK
0.6: Binding of Control serum LUMC to looped peptides [1] | Rabbit serum looped peptides [2] | Binding of serum 2 to linear peptides of protein X4 of SARS-CoV Urbani [3] | Binding of serum 37 to looped/cyclic peptides of protein X4 of SARS-CoV Urbani [3]
0.8: Binding of Control Serum Blood-Bank to Looped peptides [1] | Rabbit serum linear peptides [2] | Binding of serum 1a to looped/cyclic peptides of protein X4 of SARS-CoV Urbani [3] | Binding of serum 1b to linear peptides of protein X4 of SARS-CoV Urbani [3] | Binding of serum 6 to linear peptides of protein X4 of SARS-CoV Urbani [3] | Binding of serum 37 to linear peptides of protein X4 of SARS-CoV Urbani [3] | Binding of serum 62 to linear peptides of protein X4 of SARS-CoV Urbani [3] | Binding of serum London to linear peptides of protein X4 of SARS-CoV Urbani [3]
0.7: Binding of Control serum LUMC to linear peptides [1] | Binding of serum 1a to linear peptides of protein X4 of SARS-CoV Urbani [3] | Binding of serum 2 to looped/cyclic peptides of protein X4 of SARS-CoV Urbani [3] | Binding of serum 6 to looped/cyclic peptides of protein X4 of SARS-CoV Urbani [3] | Binding of serum 62 to looped/cyclic peptides of protein X4 of SARS-CoV Urbani [3] | Binding of serum SARS-green to linear peptides of protein X4 of SARS-CoV Urbani [3] | Binding of serum SARS-yellow to linear peptides of protein X4 of SARS-CoV Urbani [3]
0.9: Binding of Control serum Blood-bank to linear peptides [1]
0.5: Binding of serum 1b to looped/cyclic peptides of protein X4 of SARS-CoV Urbani [3] | Binding of serum London to looped/cyclic peptides of protein X4 of SARS-CoV Urbani [3] | Binding of serum SARS-yellow to looped/cyclic peptides of protein X4 of SARS-CoV Urbani [3]
0.4: Binding of serum SARS-green to looped/cyclic peptides of protein X4 of SARS-CoV Urbani [3]
